Assay results from US6331551A, “Methods of treating microbial infection and therapeutic formulations therefor” (priority 2000, dated 2001).
In brackets after ≈: the same amount, converted by molar mass.

What was measured:
gram negative acne = conditions: oral, subsequent to oral tetracycline or erythromycin; Poli et al. 1988; cited from earlier work
Saccharomyces cerevisiae = assay: Antifungal MIC on potato dextrose agar; assay type: cell-based; conditions: PDA, 26° C., 48 hr up to one week
Experimental: (§1) The yeast and fungi listed below in Table 2 were grown on potato dextrose agar (PDA) containing different concentrations of sclareol and sclareolide, according to the following method: sclareol or sclareolide (in powder form) was added to pre-measured amounts of PDA medium in petri plates, mixed thoroughly by tilting the petri plate from side to side, and allowed to solidify. The sclareol and […] in preparing the petri plates was of greater than 99% purity. After solidification, the plates were inoculated with 5 mm disks, cut from the outer margin of the actively growing cultures of yeast and fungi and placed in the center of the plate in an inverted position in direct contact with the sclareol/sclareolide impregnated medium. The plates were incubated at 26° C. The plates were monitored periodically to estimate the minimum inhibitory concentration (MIC) based on the growth proliferation from the 5 mm inoculum disk. The results were measured and recorded after 48 hr, up to one week. A summary of the effects of sclareol and sclareolide against the bacteria and fungi tested in Examples 1 and 2 is provided in Table 3. The data is presented as the effect of sclareol and sclareolide on selected microbial cultures, in terms of minimum inhibitory concentration, as measured in μg/ml.

Aspergillus flavus = assay: Antifungal MIC on potato dextrose agar; assay type: cell-based; conditions: PDA, 26° C., 48 hr up to one week
Experimental: as §1

Candida kefyr = assay: Antifungal MIC on potato dextrose agar; assay type: cell-based; conditions: Kluyveromyces marxianus, PDA, 26° C., 48 hr up to one week
Experimental: as §1

Penicillium notatum = assay: Antifungal MIC on potato dextrose agar; assay type: cell-based; conditions: Penicillium chrysogenum, PDA, 26° C., 48 hr up to one week
Experimental: as §1

[1] = tested on: Gram positive bacteria, specifically, S. aureus and P. acnes; assay: Disk antibacterial test, Gram positive bacteria; assay type: cell-based
Experimental: (§2) The following seven bacteria were grown on nutrient agar slants for 48 hours at 37° C.: Enterobacter aerogens, Propionibacterium acnes, Pseudomonas aeruginosa, Escherichia coli, Bacillus subtilis, Agrobacterium tumefaciens, and Staphylococcus aureus.
(§3) A bacterial colony from each of the respective slants was suspended in 1 ml sterile deionized water. 0.1 ml of each cell suspension was evenly spread on nutrient agar plates (10×10^5 cells/ml). After 30 min, sclareol and sclareolide-impregnated disks were placed on bacteria-lawned plates. The sclareol and sclareolide used in this experiment were relatively pure samples (greater than 99% pure). Triplicate disks of (10, 100, 500, and 1000 ug/disk) of each sample was applied on to 6 mm diameter (0.3 mm thickness) filter paper disks and air dried. Controls were prepared with respective solvents. Plates were incubated for 24-48 hr at 37° C. The inhibition zones were measured and recorded after 15 hr, up to 48 hr.

[2] = tested on: Agrobacterium tumefaciens; assay: Disk zone of inhibition / antibacterial activity; assay type: cell-based; design: key to Zone of inhibition: +++: High inhibition; ++: moderate inhibition; +: low inhibition; -: non inhibition; conditions: A. tumefaciens; for MIC: Agrobacterium tumefaciens
Experimental: as §2, §3
(§4) A summary of the effects of sclareol and sclareolide against the bacteria and fungi tested in Examples 1 and 2 is provided in Table 3. The data is presented as the effect of sclareol and sclareolide on selected microbial cultures, in terms of minimum inhibitory concentration, as measured in μg/ml.

Enterobacter aerogens = assay: Disk zone of inhibition / antibacterial activity; assay type: cell-based; design: key to Zone of inhibition: +++: High inhibition; ++: moderate inhibition; +: low inhibition; -: non inhibition; conditions: E. aerogens; for MIC: Enterobacter
Experimental: as §2, §3, §4

Propionibacterium acnes = assay: Disk zone of inhibition / antibacterial activity; assay type: cell-based; design: key to Zone of inhibition: +++: High inhibition; ++: moderate inhibition; +: low inhibition; -: non inhibition; conditions: P. acnes; for MIC: Cutibacterium acnes
Experimental: as §2, §3, §4

Bacillus subtilis = assay: Disk zone of inhibition / antibacterial activity; assay type: cell-based; design: key to Zone of inhibition: +++: High inhibition; ++: moderate inhibition; +: low inhibition; -: non inhibition; conditions: for MIC: Bacillus subtilis, B. subtilis; for Zone of inhibition: D. subtilis [sic]
Experimental: as §2, §3, §4

Escherichia coli = assay: Disk zone of inhibition / antibacterial activity; assay type: cell-based; design: key to Zone of inhibition: +++: High inhibition; ++: moderate inhibition; +: low inhibition; -: non inhibition; conditions: E. coli; for MIC: Escherichia coli
Experimental: as §2, §3, §4

Staphylococcus aureus = assay: Disk zone of inhibition / antibacterial activity; assay type: cell-based; design: key to Zone of inhibition: +++: High inhibition; ++: moderate inhibition; +: low inhibition; -: non inhibition; conditions: S. aureus; for MIC: Staphylococcus aureus
Experimental: as §2, §3, §4

Pseudomonas aeruginosa = assay: Disk zone of inhibition / antibacterial activity; assay type: cell-based; design: key to Zone of inhibition: +++: High inhibition; ++: moderate inhibition; +: low inhibition; -: non inhibition; conditions: P. aeruginosa; for MIC: Pseudomonas aeruginosa
Experimental: as §2, §3, §4

bacteria tested = assay: Disk antibacterial test, overall; assay type: cell-based; conditions: in general
Experimental: as §2, §3

For `CC1(C)S[C@@H]2[C@H](NC(=O)[C@H](N)c3ccccc3)C(=O)N2[C@H]1C(=O)O` [ampicillin], the “effectiveness in treating gram negative acne” value (gram negative acne) is given as “effective”.

In the case of `CC1(C)S[C@@H]2[C@H](NC(=O)[C@H](N)c3ccc(O)cc3)C(=O)N2[C@H]1C(=O)O` [amoxicillin], the “effectiveness in treating gram negative acne” value (gram negative acne) is given as “effective”.

In the case of `CC1(C)CCCC2(C)C1CCC1(C)OC(=O)CC12` (single isomer, unassigned) [Sclareolide, sclareolide], the MIC (Saccharomyces cerevisiae) is reported as 500 µg/mL (≈ 2000 µM), the MIC (Aspergillus flavus) is reported as 1000 µg/mL (≈ 3990 µM) and the MIC (Candida kefyr) is reported as 400 µg/mL (≈ 1600 µM). For the same compound, the MIC (Penicillium notatum) was 1000 µg/mL (≈ 3990 µM), the “activity against Gram positive bacteria” value [1] was “more active against Gram positive bacteria” and the Zone of inhibition ([2]; 10 ug/disk) was “+”. For the same compound, the Zone of inhibition ([2]; 100 ug/disk) was “++”, the Zone of inhibition ([2]; 500 ug/disk) was “+++” and the Zone of inhibition ([2]; 1000 ug/disk) was “+++”. For the same compound, the MIC [2] was 10 µg/mL (≈ 39.9 µM), the sensitivity to treatment (Enterobacter aerogens) was “more sensitive” and the Zone of inhibition (Enterobacter aerogens; 10 ug/disk) was “+”. For the same compound, the Zone of inhibition (Enterobacter aerogens; 100 ug/disk) was “++”, the Zone of inhibition (Enterobacter aerogens; 500 ug/disk) was “+++” and the Zone of inhibition (Enterobacter aerogens; 1000 ug/disk) was “+++”. The MIC (Enterobacter aerogens) was 10 µg/mL (≈ 39.9 µM), the MIC (Propionibacterium acnes) was 40 µg/mL (≈ 160 µM) and the sensitivity to treatment (Propionibacterium acnes) was “more sensitive”. For the same compound, the Zone of inhibition (Propionibacterium acnes; 10 ug/disk) was “+”, the Zone of inhibition (Propionibacterium acnes; 100 ug/disk) was “+++” and the Zone of inhibition (Propionibacterium acnes; 500 ug/disk) was “+++”. For the same compound, the Zone of inhibition (Propionibacterium acnes; 1000 ug/disk) was “+++”, the MIC (Bacillus subtilis) was 10 µg/mL (≈ 39.9 µM) and the Zone of inhibition (Bacillus subtilis; 10 ug/disk) was “+”. The Zone of inhibition (Bacillus subtilis; 100 ug/disk) was “+”, the Zone of inhibition (Bacillus subtilis; 500 ug/disk) was “+” and the Zone of inhibition (Bacillus subtilis; 1000 ug/disk) was “++”. The sensitivity to treatment (Escherichia coli) was “least sensitive”, the Zone of inhibition (Escherichia coli; 10 ug/disk) was “-” and the Zone of inhibition (Escherichia coli; 100 ug/disk) was “-”. For the same compound, the Zone of inhibition (Escherichia coli; 500 ug/disk) was “+”, the Zone of inhibition (Escherichia coli; 1000 ug/disk) was “++” and the MIC (Escherichia coli) was 500 µg/mL (≈ 2000 µM). For the same compound, the sensitivity to treatment (Staphylococcus aureus) was “more sensitive”, the Zone of inhibition (Staphylococcus aureus; 10 ug/disk) was “+” and the Zone of inhibition (Staphylococcus aureus; 100 ug/disk) was “++”. The Zone of inhibition (Staphylococcus aureus; 500 ug/disk) was “+++”, the Zone of inhibition (Staphylococcus aureus; 1000 ug/disk) was “+++” and the MIC (Staphylococcus aureus) was 50 µg/mL (≈ 200 µM). The sensitivity to treatment (Pseudomonas aeruginosa) was “least sensitive”, the Zone of inhibition (Pseudomonas aeruginosa; 10 ug/disk) was “-” and the Zone of inhibition (Pseudomonas aeruginosa; 100 ug/disk) was “-”. For the same compound, the Zone of inhibition (Pseudomonas aeruginosa; 500 ug/disk) was “++”, the Zone of inhibition (Pseudomonas aeruginosa; 1000 ug/disk) was “++” and the MIC (Pseudomonas aeruginosa) was 500 µg/mL (≈ 2000 µM).

`C=C[C@](C)(O)CC[C@@H]1[C@@]2(C)CCCC(C)(C)[C@@H]2CC[C@@]1(C)O` [Sclareol, sclareol] gave an MIC (Saccharomyces cerevisiae) of 500 µg/mL (≈ 1620 µM), an MIC (Aspergillus flavus) of 1000 µg/mL (≈ 3240 µM) and an MIC (Candida kefyr) of 100 µg/mL (≈ 324 µM). The MIC (Penicillium notatum) was 1000 µg/mL (≈ 3240 µM), the “relative activity against the bacteria tested” value (bacteria tested) was “more active than sclareolide” and the “activity against Gram positive bacteria” value [1] was “more active against Gram positive bacteria”. The Zone of inhibition ([2]; 10 ug/disk) was “+”, the Zone of inhibition ([2]; 100 ug/disk) was “++” and the Zone of inhibition ([2]; 500 ug/disk) was “+++”. The Zone of inhibition ([2]; 1000 ug/disk) was “+++”, the MIC [2] was 10 µg/mL (≈ 32.4 µM) and the sensitivity to treatment (Enterobacter aerogens) was “more sensitive”. For the same compound, the Zone of inhibition (Enterobacter aerogens; 10 ug/disk) was “+”, the Zone of inhibition (Enterobacter aerogens; 100 ug/disk) was “+++” and the Zone of inhibition (Enterobacter aerogens; 500 ug/disk) was “+++”. The Zone of inhibition (Enterobacter aerogens; 1000 ug/disk) was “+++”, the MIC (Enterobacter aerogens) was 10 µg/mL (≈ 32.4 µM) and the MIC (Propionibacterium acnes) was 40 µg/mL (≈ 130 µM). For the same compound, the sensitivity to treatment (Propionibacterium acnes) was “more sensitive”, the Zone of inhibition (Propionibacterium acnes; 10 ug/disk) was “+” and the Zone of inhibition (Propionibacterium acnes; 100 ug/disk) was “+++”. The Zone of inhibition (Propionibacterium acnes; 500 ug/disk) was “+++”, the Zone of inhibition (Propionibacterium acnes; 1000 ug/disk) was “+++” and the MIC (Bacillus subtilis) was 10 µg/mL (≈ 32.4 µM). The Zone of inhibition (Bacillus subtilis; 10 ug/disk) was “+”, the Zone of inhibition (Bacillus subtilis; 100 ug/disk) was “+” and the Zone of inhibition (Bacillus subtilis; 500 ug/disk) was “++”. For the same compound, the Zone of inhibition (Bacillus subtilis; 1000 ug/disk) was “++”, the sensitivity to treatment (Escherichia coli) was “least sensitive” and the Zone of inhibition (Escherichia coli; 10 ug/disk) was “-”. For the same compound, the Zone of inhibition (Escherichia coli; 100 ug/disk) was “-”, the Zone of inhibition (Escherichia coli; 500 ug/disk) was “+” and the Zone of inhibition (Escherichia coli; 1000 ug/disk) was “++”. For the same compound, the MIC (Escherichia coli) was 500 µg/mL (≈ 1620 µM), the sensitivity to treatment (Staphylococcus aureus) was “more sensitive” and the Zone of inhibition (Staphylococcus aureus; 10 ug/disk) was “+”. The Zone of inhibition (Staphylococcus aureus; 100 ug/disk) was “++”, the Zone of inhibition (Staphylococcus aureus; 500 ug/disk) was “+++” and the Zone of inhibition (Staphylococcus aureus; 1000 ug/disk) was “+++”. The MIC (Staphylococcus aureus) was 50 µg/mL (≈ 162 µM), the sensitivity to treatment (Pseudomonas aeruginosa) was “least sensitive” and the Zone of inhibition (Pseudomonas aeruginosa; 10 ug/disk) was “-”. For the same compound, the Zone of inhibition (Pseudomonas aeruginosa; 100 ug/disk) was “+”, the Zone of inhibition (Pseudomonas aeruginosa; 500 ug/disk) was “++” and the Zone of inhibition (Pseudomonas aeruginosa; 1000 ug/disk) was “++”. For the same compound, the MIC (Pseudomonas aeruginosa) was 100 µg/mL (≈ 324 µM).
